Consider three compounds from patent US9284320B2, “Ticagrelor adducts with divalent metal salts” (Lek Pharmaceuticals d.d., priority 2012, dated 2016).

The nature of series [1]: Hygroscopicity observed on isolation of the adduct. It is filed as physicochemical. To be noted: on air, after filtration under nitrogen. As for the experimental part: To a solution of TCG (0.30 g) in dry MeCN (4 mL) at 60° C. MgCl2 (60 mg) was added in one portion, and the resulting reaction mixture was stirred at 60° C. for 16 h.
To a solution of TCG (0.20 g) in dry MeCN (5 mL) at 50° C. MgBr2 (74 mg) was added in one portion, and the resulting reaction mixture was stirred at 50° C. for 15 min.

A short description of series [2]: Physical stability at room temperature (DSC), adduct compared to amorphous TCG. It is filed as physicochemical. Here is the method:
The so obtained Ia was left at room temperature in a closed vial to test physical stability. DSC analysis was performed after 21 days (FIG. 2) and after 31 days (FIG. 3).
DSC analysis of a sample was performed immediately (FIG. 4). Another sample of the so obtained Ia was left at room temperature to test physical stability.
TCG (0.52 g) was dissolved in 55 mL of aqueous ethanol (50 vol %) with the aid of ultrasonic irradiation. To the solution 33 mL water was poured at once and the obtained turbid mixture was frozen immediately in liquid nitrogen. The material was then lyophilized for 72 h at ˜0.8 mbar. DSC analysis of a sample was performed immediately (FIG. 6). Another sample of the so obtained amorphous TCG was left at room temperature to test physical stability.
Conditions for obtaining DSC thermograms: Thermograms were obtained with Mettler Toledo DSC822e differential scanning calorimeter. The sample (1-10 mg) was placed in an unsealed aluminium pan with a hole and heated at 10° C./min in the temperature range from 30° C. to 250° C.

The conditions of series [3]: general statement in the description; cited from earlier work.

With `CCCSc1nc(N[C@@H]2C[C@H]2c2ccc(F)c(F)c2)c2nnn([C@@H]3C[C@H](OCCO)[C@@H](O)[C@H]3O)c2n1` [Ib], the hygroscopicity entry in series [1] is listed as “hygroscopic on air”.

In the case of `CCCSc1nc(N[C@@H]2C[C@H]2c2ccc(F)c(F)c2)c2nnn([C@@H]3C[C@H](OCCO)[C@@H](O)[C@H]3O)c2n1` [amorphous basic ticagrelor], the “chemical and physical stability (conversion of amorphous state to crystalline form)” value in series [2] is “quickly converts to the more stable crystalline forms”.

Regarding `CCCSc1nc(N[C@@H]2C[C@H]2c2ccc(F)c(F)c2)c2nnn([C@@H]3C[C@H](OCCO)[C@@H](O)[C@H]3O)c2n1` [Ticagrelor, 3-[7-[[(1R,2S)-2-(3,4-difluorophenyl)cyclopropyl]amino]-5-(propylthio)-3H-1,2,3-triazolo[4,5-d]pyrimidin-3-yl]-5-(2-hydroxyethoxy)-(1S,2S,3R,5S)-1,2-cyclopentanediol], in series [3], the solubility in water entry is “low solubility in water”.
